# Legend:
# LITAF = assay: Mice study #2: LITAF immunostaining of gingival tissue; type: in vivo, C57BL/6 mice
# Description: Mice study #2: Validation study for preventive and active treatment for DIGO. […] One set of these mice were used as a control disease group (FIG. 23A) while the other group was treated with folic acid (gel and in drinking water) (FIG. 23B). In the prevention and treatment group, folic acid (10 μg/ml) (Sigma-Aldrich, St. Louis MO) was included in the drinking water from the time of suture placement until end of the study (14 days). Additionally, gel applications were repeated daily until the end of the study (14 days). The four groups in this study were: • 1. Control group (n=2): no interventions were performed • 2.
# Histopathology and Immunohistochemistry. Mice mandibles were fixed in 10% formaldehyde for overnight at 4° C. on the shaker with 45 rpm and then the solutions were replaced with 70% ethanol. The tissues were decalcified with 10% ethylenediaminetetraacetic acid (EDTA) for 1 week and were dehydrated through graded ethanol, cleared with xylene, and embedded in paraffin. 4 μm serial sections were cut in a buccal-lingual direction and stained with Hematoxylin and Eosin (HE) and observed under light microscopy for histomorphological evaluations.
# For immunohistochemistry, unstained sections were deparaffinized in xylene for 10 minutes and then transferred to ethanol for 20 minutes. […]
# NF-κB (p-P65) = assay: Western blot of phospho-p65 (NF-κB) in oral keratinocytes; type: cell-based, human
# Description: Cell Culture. Normal human oral keratinocytes (NOKSI) and fibroblast (HOF) cells were maintained in Dulbecco […] Eagle's medium (Sigma-Aldrich, St. Louis, MO, USA) supplemented with 10% fetal bovine serum (Atlas Bio-logicals, Fort Collins, CO, USA) and 100 units/mL penicillin and 100 μg/mL streptomycin (LifeTechnologies, Carlsbad, CA, USA). Cells were grown in incubator at 37° C. in a humidified chamber with 5% CO2.
# Drugs treatment in cell culture. The cells were treated alone or with different combination of lipopolysaccharide, cyclosporine, phenytoin, and folic acid. All of them were purchased from Sigma-Aldrich (St. Louis, MO, USA). Each of them were used from 0 μg/ml to 40 μg/ml and the optimum concentration were found 10 μg/ml.
# Western blot analysis. Cells were seeded in 60 mm plates with a density of 5×10^5 cells per plate and washed briefly with Dulbecco's phosphate-buffered saline (Gibco, Waltham, MA, USA). Whole cell lysates were prepared using RIPA lysis buffer containing protease inhibitor cocktail (Sigma-Aldrich). Total protein concentration was determined using the BCA reagent (Pierce, Waltham, MA, USA). 20 μg of total protein were resolved on sodium dodecyl sulfate-polyacrylamide gel electrophoresis and transferred to polyvinylidenedifluoride membrane and immunoblotted. The blots were incubated for 1 h in 1% bovine serum albumin (BSA) (Sigma-Aldrich) to block the non-specific bindings followed by over-night incubation in primary antibodies (MyD88 and pP65 from Cell Signaling Technology, and human LITAF ThermoFisher Sigma) at 4° C. on shaker. Next day, blots were washed for three times (10 min each) in Tris-buffered saline containing 1% Tween20 (TBST) followed by incubation with secondary antibody (Goat anti-rabbit IgG HRP) with 1:10,000 dilution for 1 h. Following washes, bands were visualized using gel documentation Imaging Systems (BioRad). The band intensities were quantified using software ImageJ (NIH, USA) and relative protein levels were normalized by β-actin (Cell Signaling). […]
structure (smiles),measurement,setting,value
Nc1nc2ncc(CNc3ccc(C(=O)N[C@@H](CCC(=O)O)C(=O)O)cc3)nc2c(=O)[nH]1 [folic acid],"epithelial LITAF expression, disease group relative to folic acid-treated group",LITAF,higher in the disease group and uniformly distributed compared to the control and treated groups
same,p-P65 protein level,"NF-κB (p-P65); LPS, CSA, FA each 10 μg/ml, 24 hours",inhibits CSA-induced expression
same,amount of phospho-p65 (p-P65) protein,"NF-κB (p-P65); LPS, Phe, FA each 10 μg/ml, 24 hours",reduces phosphorylation of NF-κB (p-P65)
same,NF-κB by western blot,"NF-κB (p-P65); normal oral keratinocyte cells, FIG. 35",downregulation

# Reference: patent US20260000496A1, “MATERIALS AND METHODS FOR DRUG-INDUCED GINGIVAL OVERGROWTH” (Optimed Technology, Inc., priority 2019, published 2026)
